“Also recorded” adds a separate entry of the source.
B1: CXCR4: Printed in b110 as the treating agent; apparently a misprint for VEGF-C (protein)
chain: MEPISVSIYTSDNYSEEVGSGDYDSNKEPCFRDENVHFNRIFLPTIYFIIFLTGIVGNGLVILVMGYQKKLRSMTDKYRLHLSVADLLFVITLPFWAVDAMADWYFGKFLCKAVHIIYTVNLYSSVLILAFISLDRYLAIVHATNSQRPRKLLAEKAVYVGVWIPALLLTIPDFIFADVSQGDISQGDDRYICDRLYPDSLWMVVFQFQHIMVGLILPGIVILSCYCIIISKLSHSKGHQKRKALKTTVILILAFFACWLPYYVGISIDSFILLGVIKQGCDFESIVHKWISITEALAFFHCCLNPILYAFLGAKFKSSAQHALNSMSRGSSLKILSKGKRGGHSSVSTESESSSFHSS

Experiments:
[1] = system: mouse lymphatic endothelial cells; experiment: Cell chemotaxis assay (Transwell); type: cell-based; conditions: antibodies 5 μg/mL, AMD3100 25 μg/mL, 6 hours; for effect on migration of mouse lymphatic endothelial cells induced by CXCL12: CXCL12 100 ng/mL, LY294002 and U0126 10 μM, pretreated 30 minutes
Experimental: The migration ability of mouse lymphatic endothelial cells was assessed using 8-μm-pore Transwell bucket (filter membrane) (purchased from Costar). The transwell bucket was placed into a 24-well plate. Mouse primary lymphatic endothelial cells (mLECs) at passage 2 or 3 in good conditions were selected, and divided into five groups, four parallel samples for each group and approximately 2×10^4 cells for each parallel sample. The cells were digested with trypsin, resuspended in 200 μL of fresh serum-free endothelial cell culture medium (ECM, purchased from Sciencell), and then seeded into the inner chambers of the Transwell bucket. To each outer chamber was added 800 μL of serum-free endothelial cell culture medium mixed with 1 ng/mL, 20 ng/mL, 100 ng/mL of chemokine CXCL12 (purchased from R&D Systems), 100 ng/mL of VEGF-C (purchased from R&D Systems) and PBS control, respectively. The culture plate was placed into an incubator and incubated under 5% CO2 at 37° C. for 6 hours.
After taking out the culture plate, the Transwell bucket was fixed in 4% paraformaldehyde solution for 15 minutes. The Transwell bucket was rinsed twice in PBS, stained with 0.1% crystal violet solution for 30 minutes, and then washed with PBS to remove the non-specifically bound crystal violet. The cells inside Transwell membrane were wiped off gently with medical cotton swabs. Note that the cells on the edge of the membrane should also be wiped off to avoid affecting cell counting. The Transwell bucket was placed under a microscope (Olympus IX71 microscope), and the cells migrated from the outer membrane were observed by microscopy. 8 fields per group were photographed randomly to count the cells.
The migration ability of mouse lymphatic endothelial cells was assessed using 8-μm-pore Transwell bucket (purchased from Costar). The bucket was placed into a 24-well plate. Mouse primary lymphatic endothelial cells (mLECs) at passage 2 or 3 in good conditions were selected, and divided into six groups, four parallel samples for each group, and approximately 2×10^4 cells for each parallel sample. The cells were digested with trypsin and resuspended in 200 μL, of fresh serum-free endothelial cell culture medium (ECM, purchased from Sciencell). The cells were pretreated for 30 minutes with dimethyl sulfoxide (DMSO) as a control, protein kinase B (Akt) antagonist LY294002 (10 μM, purchased from Sigma-Aldrich) and extracellular signal-regulated kinase (Erk) antagonist U0126 (10 μM, purchased from Sigma-Aldrich), respectively, and then seeded into the inner chambers of the Transwell bucket. […] The cells were stained and the number of the migrated cells was counted.
The migration ability of mouse lymphatic endothelial cells was detected by using 8-μm-pore Transwell bucket (purchased from Costar). […]

[2] = system: newly formed lymphatic vessels; experiment: In vivo Matrigel plug assay (lymphangiogenesis); set-up: species or system BALB/c mice; conditions: CXCL12 500 ng/mL; antibodies 10 μg/mL, AMD3100 50 μg/mL; 8 days
Experimental: Matrigel plug assay was conducted as previously reported^[44]. BALB/C mice (5 weeks old, female, purchased from Vital River Laboratories, Beijing) were divided into five groups, five mice each group. Growth factor-free Matrigel (9-10 mg/mL, purchased from Becton-Dickinson Biosciences) containing 20 ng/mL, 100 ng/mL, 500 ng/mL of chemokine CXCL12 (purchased from R&D Systems), 500 ng/mL of VEGF-C (purchased from R&D Systems), and PBS control, respectively, was injected subcutaneously into the BALB/c mice along the abdominal midline. The Matrigel formed a solid plug in the mice, and the agent was slowly released from the Matrigel to stimulate new mouse lymphatic vessels to be formed and grown into the Matrigel. 8 days later, the Matrigel was removed carefully.
After being washed in PBS, the Matrigel were fixed in 30% sucrose solution at 4° C. overnight. Frozen sections in a thickness of about 10 μm were prepared and stored at −20° C. The frozen sections were blocked with a blocking solution in a humidified chamber at room temperature for 1 hour. The blocking solution was PBS containing 10% normal goat serum. […]
The newly formed lymphatic vessels in the Matrigel were detected by immunofluorescence, and observed and imaged under a laser confocal microscope (Nikon A1) using the imaging and statistic software NIS-Elements AR 3.0. […]

chemokine receptor CXCR4 = experiment: Immunoblotting of CXCR4 in lymphatic endothelial cells (incl. HIF-1α RNA interference); type: cell-based; conditions: mouse lymphatic endothelial cells, 100 ng/mL VEGF-C, 6, 12 and 24 hours
Experimental: Mouse primary lymphatic endothelial cells at passage 2 or 3 in good condition were selected, and starved overnight by replacing the culture medium with a fresh medium free of serum and growth factors. Then the medium was replaced with a medium containing 100 ng/mL of VEGF-C. The cells were incubated for 6, 12 and 24 hours, respectively, and then trypsinized and collected by centrifugation for detecting the expression level of chemokine receptor CXCR4 in the cells by immunoblotting.
The samples were subjected to SDS-PAGE (the concentration of separation gel was 15%). Protein bands were transferred to polyvinylidene difluoride (PVDF) membrane (purchased from Millipore) at 100 mA for 3 hours using an electroblotting device in ice bath. TBST buffer (20 mM Tris, pH7.4, 150 mM NaCl, 0.1% Tween-20) was formulated for preparing blocking solution, primary antibody solution and secondary antibody solution. The PVDF membrane was further incubated in blocking solution containing 5% skim milk for 1 hour at room temperature with gentle shaking. The membrane was then washed with TBST for 5 times, 5 minutes each. […]
The siRNA for interfering with the chemical synthesis of HIF-1α was purchased from Santa Cruz Biotechnology, and the negative control siRNA was purchased from GenePharma, Shanghai. […] HIF-1α knock-down efficiency was detected by immunoblotting. […]

Molecule	effect on migration of mouse lymphatic endothelial cells induced by CXCL12 [1]	effect on activity of VEGF-C (migration of mouse lymphatic endothelial cells) ([1]; VEGF-C 100 ng/mL)	effect on lymphangiogenesis induced by CXCL12 in Matrigel plug [2]	expression level of CXCR4 (chemokine receptor CXCR4)
c1cc(CN2CCCNCCNCCCNCC2)ccc1CN1CCCNCCNCCCNCC1 [AMD3100]	could inhibit the migration of mouse lymphatic endothelial cells induced by CXCL12; also recorded: activity of chemokine CXCL12 was inhibited	had no effect on the activity of growth factor VEGF-C; also recorded: the activity of VEGF-C was not affected	could significantly reduce the activity of chemokine CXCL12	
N#CC(=C(/N)Sc1ccccc1N)/C(C#N)=C(\N)Sc1ccccc1N [U0126]	inhibited the lymphatic endothelial cell migration induced by chemokine CXCL12			
B1				could upregulate the expression level of CXCR4
